Results on 3 compounds are retold here after patent publication US10040893B2, “Polymeric photoinitiators and photoinitiator monomers” (Coloplast A/S, priority 2012, dated 2018).

Series [1] is described as follows: Qualitative solubility comparison of monomeric photoinitiators. As to conditions: photoinitiator monomer; concentration and temperature printed in the cell. Type of series: physicochemical.
Method: 100 mg of photoinitiator monomer sample was placed in a vial and appropriate amount of solvent was added. The vial was stirred at ambient temperature (20° C.) overnight or warmed with a hot air gun to 60° C. for 10 minutes. The qualitative solubility of the sample was then judged based on residual undissolved material in the vial.

In the case of `CCCOc1ccc(Cl)c2c(=O)c3ccccc3sc12` [1-chloro-4-propoxy thioxanthone], the UV absorption wavelength (350-400 nm band region) is reported as 387 nm. The “E1^1 (extinction coefficient of absorption)” value (at the stated absorption wavelength) is 175. `O=C(c1ccccc1)c1ccc(OCCCN(CCO)CCO)cc1` [Preparatory Example 1, 4-{3-[bis(2-hydroxyethyl)amino]propoxy}benzophenone]: in series [1], the water solubility entry was “sparingly soluble at 100 °C”. On the same count and under the same terms, for `O=c1c2ccccc2sc2c(OCCCN(CCO)CCO)ccc(Cl)c12` [Preparatory Example 2, 4-{3-[bis(2-hydroxyethyl)amino]propoxy}-1-chloro-9H-thioxanthen-9-one] the value was “sparingly soluble at 100 °C”.
